Measured values published in patent publication US6399672B1, “Oil soluble metal-containing compounds, compositions and methods” (Sartomer Technologies Co., Inc., priority 1999, dated 2002).

Test: Solubility of Zn salts in organic compounds
Settings: mixed with organic monomers listed per example in b131-b162 (glycol di(meth)acrylates, trimethylolpropane triacrylate etc.)
Excerpt: The organic compounds tested with the products of each of the preceding examples were as follows: […]

For zinc dimethacrylate, the “solubility in organic compounds” value was “insoluble”.
